The values that follow come from US7297700B2, “Bicycloheteroaryl compounds as P2X7 modulators and uses thereof” (Renovis, Inc., priority 2005, dated 2007).

The test system of the first assay is IL-1β release from THP-1 cells. Briefly: IL-1β Release Assay (Alternate Method), THP-1 cells. Format: cell-based, human. The note with it: at 0.3 μM; THP-1 cells. A digest of the protocol: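 IL-1β release, measured by ELISA, follows 45 min BzATP (250 uM final) stimulation of THP-1 cells given 30 min compound pretreatment. Cells were first primed 16 h with LPS and IFN-γ (100 ng/mL each), then 2 h with fresh LPS; inhibition expressed in percent after background correction.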
For the compound `N#Cc1cc(CN2CCc3c(ncnc3NC(=O)CC34CC5CC(CC(C5)C3)C4)C2)ccc1F` [Compound 84], the IL-1β % inhibition entry is “+ (compound exhibited 0-25% inhibition at 0.3 μM)”.
`Cc1nn(C)c(C)c1S(=O)(=O)N1CCc2c(ncnc2NC(=O)CC23CC4CC(CC(C4)C2)C3)C1` [Compound 198]: the IL-1β % inhibition entry is given as “+ (compound exhibited 0-25% inhibition at 0.3 μM)”.
Consider `CC12CC3(C)CC(C)(C1)CC(C(=O)Nc1ncnc4c1CCN(Cc1ccccc1)C4)(C2)C3` [Compound 346], for which the IL-1β % inhibition result was “+ (compound exhibited 0-25% inhibition at 0.3 μM)”.
Take `O=C(CC12CC3CC(CC(C3)C1)C2)Nc1ncnc2c1CCN(C(=O)c1c(Cl)cccc1Cl)C2` [Compound 218]: the IL-1β % inhibition entry is listed as “++++ (compound exhibited 75% or greater inhibition at 0.3 μM)”.
Regarding `O=C(CC12CC3CC(CC(C3)C1)C2)Nc1ncnc2c1CCN(S(=O)(=O)c1ccc(Cl)cc1F)C2` [Compound 202], the IL-1β % inhibition entry is on record as “++ (compound exhibited 25-50% inhibition at 0.3 μM)”.
`CC(C)(C(=O)Nc1ncnc2c1CCN(C(=O)CC1CCCC1)C2)C12CC3CC(CC(C3)C1)C2` [Compound 365]: the IL-1β % inhibition entry is “+ (compound exhibited 0-25% inhibition at 0.3 μM)”.
Take `CC12CC3CC(C)(C1)CC(CC(=O)Nc1ncnc4c1CCN(Cc1ccccc1Cl)C4)(C3)C2` [Compound 370]: the IL-1β % inhibition result is on record as “++ (compound exhibited 25-50% inhibition at 0.3 μM)”.
As for `N#Cc1ccc(S(=O)(=O)N2CCc3c(ncnc3NC(=O)CC34CC5CC(CC(C5)C3)C4)C2)cc1` [Compound 167], the IL-1β % inhibition entry is “++ (compound exhibited 25-50% inhibition at 0.3 μM)”.
`O=C(CC12CC3CC(CC(C3)C1)C2)Nc1ncnc2c1CCN(C(=O)c1ccc3ccccc3c1)C2` [Compound 290]: the IL-1β % inhibition entry was “++++ (compound exhibited 75% or greater inhibition at 0.3 μM)”.
Consider `O=C(CC12CC3CC(CC(C3)C1)C2)Nc1ncnc2c1CCN(Cc1ccc(Cl)s1)C2` [Compound 83], for which the IL-1β % inhibition result is listed as “++++ (compound exhibited 75% or greater inhibition at 0.3 μM)”.
On to `O=C(CC12CC3CC(CC(C3)C1)C2)Nc1ncnc2c1CCN(Cc1ccc3c(c1)Cc1ccccc1-3)C2` [Compound 318], for which the IL-1β % inhibition result was “+ (compound exhibited 0-25% inhibition at 0.3 μM)”.
In the case of `O=C(CC12CC3CC(CC(C3)C1)C2)Nc1ncnc2c1CCN(CC1CCCCC1)C2` [Compound 122], the IL-1β % inhibition entry is given as “+ (compound exhibited 0-25% inhibition at 0.3 μM)”.
With `Cc1ccc(C2(CNC(=O)c3ncnc4c3CCN(Cc3ccccc3)C4)CCCCC2)cc1` [Compound 60], the IL-1β % inhibition entry was “+ (compound exhibited 0-25% inhibition at 0.3 μM)”.
For `O=C(CC1CCCCCC1)Nc1ncnc2c1CCN(Cc1ccccn1)C2` [Compound 94], the IL-1β % inhibition result was “+ (compound exhibited 0-25% inhibition at 0.3 μM)”.
The same measure, in the same setting: to `O=C(CC1CCCCCC1)Nc1ncnc2c1CCN(Cc1c[nH]cn1)C2` [Compound 126] belongs “+ (compound exhibited 0-25% inhibition at 0.3 μM)”.

Staying with this assay, now noted: at 0.3 μM; THP-1 cells, BzATP-stimulated.
In the case of `O=C(Nc1ncnc2c1CCN(Cc1cc3c(cc1Cl)OCO3)C2)C12CC3CC(CC(C3)C1)C2` [Compound 599], the IL-1β % inhibition result is “+ (compound exhibited 0-25% inhibition at 0.3 μM)”.
Regarding `COc1ccc(F)c(CN2CCc3c(ncnc3NC(=O)C34CC5CC(CC(C5)C3)C4)C2)c1` [Compound 628], the IL-1β % inhibition result was “+ (compound exhibited 0-25% inhibition at 0.3 μM)”.
On to `O=C(Nc1ncnc2c1CCN(S(=O)(=O)c1ccc(F)cc1)C2)C12CC3CC(CC(C3)C1)C2` [Compound 490], for which the IL-1β % inhibition result is “+++ (compound exhibited 50-75% inhibition at 0.3 μM)”.
As to `O=C(Nc1ncnc2c1CCN(S(=O)(=O)c1cc(Cl)ccc1F)C2)C12CC3CC(CC(C3)C1)C2` [Compound 539], the IL-1β % inhibition entry is on record as “++ (compound exhibited 25-50% inhibition at 0.3 μM)”.
Regarding `O=C(Nc1ncnc2c1CCN(S(=O)(=O)c1c(F)cccc1F)C2)C12CC3CC(CC(C3)C1)C2` [Compound 540], the IL-1β % inhibition entry was “+ (compound exhibited 0-25% inhibition at 0.3 μM)”.
For the compound `CC(C)(C)C(=O)N1CCc2c(ncnc2NC(=O)C23CC4CC(CC(C4)C2)C3)C1` [Compound 424], the IL-1β % inhibition entry was “+ (compound exhibited 0-25% inhibition at 0.3 μM)”.
